Assay results published in patent publication US20260285850A1, “SUBSTITUTED OXAZOLIDINONES AND IMIDAZOLINONES AS HERBICIDES” (FMC CORPORATION, priority 2023, published 2026).

Assays:
Type in all cases: in vivo
[1] = test system: galium (catchweed bedstraw, Galium aparine); experiment: Test A postemergence application, visual injury rating 0-100; conditions: Postemergence
Summary of the method: (§1)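 Seeds sown in loam-sand blend got a preemergence directed soil spray, or emerged plants (2-10 cm, one- to two-leaf) got a postemergence spray, of compound in non-phytotoxic solvent with surfactant. After 10 days in greenhouse, injury rated visually versus untreated controls on a 0 (no effect) to 100 (complete control) scale.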

[2] = test system: horseweed (Erigeron canadensis); experiment: as above; conditions: Postemergence
Summary of the method: as §1

soybean (Glycine max) [3] = experiment: as above; conditions: Postemergence
Summary of the method: as §1

kochia (Bassia scoparia) [4] = experiment: as above; conditions: Postemergence
Summary of the method: as §1

[5] = test system: palmer (palmer amaranth, palmer pigweed, Amaranthus palmeri); experiment: as above; conditions: Postemergence
Summary of the method: as §1

[6] = test system: green foxtail (Setaria viridis); experiment: as above; conditions: Postemergence
Summary of the method: as §1

[7] = test system: barnyardgrass (Echinochloa crus-galli); experiment: as above; conditions: Postemergence
Summary of the method: as §1

[8] = test system: ragweed (common ragweed, Ambrosia artemisiifolia); experiment: as above; conditions: Postemergence
Summary of the method: as §1

[9] = test system: ryegrass, Italian (italian ryegrass, Lolium multiflorum); experiment: as above; conditions: Postemergence
Summary of the method: as §1

[10] = test system: oat, wild (wild oat, Avena fatua); experiment: as above; conditions: Postemergence
Summary of the method: as §1

[11] = test system: wheat (Triticum aestivum); experiment: as above; conditions: Postemergence
Summary of the method: as §1

corn (Zea mays) [12] = experiment: as above; conditions: Postemergence
Summary of the method: as §1

[13] = test system: blackgrass (Alopecurus myosuroides); experiment: as above; conditions: Postemergence
Summary of the method: as §1

soybean (Glycine max) [14] = experiment: Test A preemergence soil spray, visual injury rating 0-100; conditions: 10 days, 0 = no effect, 100 = complete control
Summary of the method: as §1

kochia (Bassia scoparia) [15] = experiment: as above; conditions: 10 days, 0 = no effect, 100 = complete control
Summary of the method: as §1

[16] = test system: palmer (palmer amaranth, palmer pigweed, Amaranthus palmeri); experiment: as above; conditions: 10 days, 0 = no effect, 100 = complete control
Summary of the method: as §1

[17] = test system: green foxtail (Setaria viridis); experiment: as above; conditions: 10 days, 0 = no effect, 100 = complete control
Summary of the method: as §1

[18] = test system: barnyardgrass (Echinochloa crus-galli); experiment: as above; conditions: 10 days, 0 = no effect, 100 = complete control
Summary of the method: as §1

[19] = test system: ragweed (common ragweed, Ambrosia artemisiifolia); experiment: as above; conditions: 10 days, 0 = no effect, 100 = complete control
Summary of the method: as §1

[20] = test system: ryegrass, Italian (italian ryegrass, Lolium multiflorum); experiment: as above; conditions: 10 days, 0 = no effect, 100 = complete control
Summary of the method: as §1

[21] = test system: oat, wild (wild oat, Avena fatua); experiment: as above; conditions: 10 days, 0 = no effect, 100 = complete control
Summary of the method: as §1

[22] = test system: wheat (Triticum aestivum); experiment: as above; conditions: 10 days, 0 = no effect, 100 = complete control
Summary of the method: as §1

corn (Zea mays) [23] = experiment: as above; conditions: 10 days, 0 = no effect, 100 = complete control
Summary of the method: as §1

[24] = test system: blackgrass (Alopecurus myosuroides); experiment: as above; conditions: 10 days, 0 = no effect, 100 = complete control
Summary of the method: as §1

[25] = test system: ducksalad (Heteranthera limosa); experiment: Test B flooded paddy test, visual plant response rating 0-100; conditions: 250 g ai/ha, Flood, applied to paddy water, evaluated after 13 days
Summary of the method: (§2)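 Compounds applied to standing paddy water (3 cm above soil, maintained for the test duration) on 2-leaf-stage plants; visual rating vs controls at 13 days, greenhouse.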

rice (Oryza sativa) = experiment: as above; conditions: 250 g ai/ha, Flood, applied to paddy water, evaluated after 13 days
Summary of the method: as §2

[26] = test system: sedge, umbrella (small-flower umbrella sedge, Cyperus difformis); experiment: as above; conditions: 250 g ai/ha, Flood, applied to paddy water, evaluated after 13 days
Summary of the method: as §2

[27] = test system: barnyardgrass (Echinochloa crusgalli); experiment: as above; conditions: 250 g ai/ha, Flood, applied to paddy water, evaluated after 13 days
Summary of the method: as §2

[28] = 31 g ai/ha, greenhouse 10 days, 0 no effect, 100 complete control
[29] = 125 g ai/ha, 10 days, 0 is no effect, 100 is complete control

With `COC(=O)COC(=O)C1C=CC(NC(=O)C2(C)CN(c3cc(Cl)cc(Cl)c3)C(=O)O2)C1` (stereo not shown) [Compound 65] the “Galium plant response rating (0 to 100 scale)” value [1, 28] was 80, the “Galium plant response rating (0 to 100 scale)” value [1, 29] was 90 and the “Horseweed plant response rating (0 to 100 scale)” value [2, 28] was 70. For the same compound, the “Horseweed plant response rating (0 to 100 scale)” value [2, 29] was 70, the “Soybean plant response rating (0 to 100 scale)” value (soybean (Glycine max) [3]; [28]) was 80 and the “Soybean plant response rating (0 to 100 scale)” value (soybean (Glycine max) [3]; [29]) was 80. The “Kochia plant response rating (0 to 100 scale)” value (kochia (Bassia scoparia) [4]; [28]) was 80, the “Kochia plant response rating (0 to 100 scale)” value (kochia (Bassia scoparia) [4]; [29]) was 90 and the “Amaranth, Palmer / Pigweed, Palmer plant response rating (0 to 100 scale)” value [5, 28] was 90. The “Amaranth, Palmer / Pigweed, Palmer plant response rating (0 to 100 scale)” value [5, 29] was 90, the “Foxtail, Green plant response rating (0 to 100 scale)” value (“Foxtail … (0 to 100 scale)” for short) [6, 28] was 90 and the “Foxtail … (0 to 100 scale)” value [6, 29] was 90. The “Barnyardgrass plant response rating (0 to 100 scale)” value [7, 28] was 100, the “Barnyardgrass plant response rating (0 to 100 scale)” value [7, 29] was 100 and the “Ragweed plant response rating (0 to 100 scale)” value [8, 28] was 80. For the same compound, the “Ragweed plant response rating (0 to 100 scale)” value [8, 29] was 80, the “Ryegrass, Italian plant response rating (0 to 100 scale)” value (“Ryegrass … (0 to 100 scale)” for short) [9, 28] was 100 and the “Ryegrass … (0 to 100 scale)” value [9, 29] was 100. For the same compound, the “Oat, Wild plant response rating (0 to 100 scale)” value (from here on “Oat … (0 to 100 scale)”) [10, 28] was 90, the “Oat … (0 to 100 scale)” value [10, 29] was 90 and the “Wheat plant response rating (0 to 100 scale)” value [11, 28] was 90. For the same compound, the “Wheat plant response rating (0 to 100 scale)” value [11, 29] was 90, the “Corn plant response rating (0 to 100 scale)” value (corn (Zea mays) [12]; [28]) was 100 and the “Corn plant response rating (0 to 100 scale)” value (corn (Zea mays) [12]; [29]) was 100. The “Blackgrass plant response rating (0 to 100 scale)” value [13, 28] was 90, the “Blackgrass plant response rating (0 to 100 scale)” value [13, 29] was 100 and the “Soybean plant response rating (0-100)” value (soybean (Glycine max) [14]; 31 g ai/ha) was 10. For the same compound, the “Soybean plant response rating (0 to 100 scale)” value (soybean (Glycine max) [14]; 125 g ai/ha) was 70, the “Kochia plant response rating (0-100)” value (kochia (Bassia scoparia) [15]; 31 g ai/ha) was 10 and the “Kochia plant response rating (0 to 100 scale)” value (kochia (Bassia scoparia) [15]; 125 g ai/ha) was 10. For the same compound, the “Amaranth, Palmer plant response rating (0-100)” value ([16]; 31 g ai/ha) was 100, the “Amaranth, Palmer plant response rating (0 to 100 scale)” value ([16]; 125 g ai/ha) was 100 and the “Foxtail, Green plant response rating (0-100)” value ([17]; 31 g ai/ha) was 90. For the same compound, the “Foxtail … (0 to 100 scale)” value ([17]; 125 g ai/ha) was 90, the “Barnyardgrass plant response rating (0-100)” value ([18]; 31 g ai/ha) was 90 and the “Barnyardgrass plant response rating (0 to 100 scale)” value ([18]; 125 g ai/ha) was 90. For the same compound, the “Ragweed plant response rating (0-100)” value ([19]; 31 g ai/ha) was 10, the “Ragweed plant response rating (0 to 100 scale)” value ([19]; 125 g ai/ha) was 70 and the “Ryegrass, Italian plant response rating (0-100)” value ([20]; 31 g ai/ha) was 70. For the same compound, the “Ryegrass … (0 to 100 scale)” value ([20]; 125 g ai/ha) was 90, the “Oat, Wild plant response rating (0-100)” value ([21]; 31 g ai/ha) was 20 and the “Oat … (0 to 100 scale)” value ([21]; 125 g ai/ha) was 80. For the same compound, the “Wheat plant response rating (0-100)” value ([22]; 31 g ai/ha) was 50, the “Wheat plant response rating (0 to 100 scale)” value ([22]; 125 g ai/ha) was 90 and the “Corn plant response rating (0-100)” value (corn (Zea mays) [23]; 31 g ai/ha) was 0. The “Corn plant response rating (0 to 100 scale)” value (corn (Zea mays) [23]; 125 g ai/ha) was 70, the “Blackgrass plant response rating (0-100)” value ([24]; 31 g ai/ha) was 50 and the “Blackgrass plant response rating (0 to 100 scale)” value ([24]; 125 g ai/ha) was 70. For the same compound, the “Plant response rating, Ducksalad (0 to 100 scale, 0 is no effect and 100 is complete control)” value [25] was 95, the “Plant response rating, Rice (0 to 100 scale, 0 is no effect and 100 is complete control)” value (rice (Oryza sativa)) was 60 and the “Plant response rating, Sedge, Umbrella (0 to 100 scale, 0 is no effect and 100 is complete control)” value [26] was 100. The “Plant response rating, Barnyardgrass (0 to 100 scale, 0 is no effect and 100 is complete control)” value [27] was 75.
